Assay results from PMC2631660 (Bioorganic & medicinal chemistry, 2008).

Legend:
hGSTA1-1 = target: T1, hGSTA1-1 (Homo sapiens, UniProt P08263); experiment: Specific activity / enzyme kinetics of GST towards compounds in presence of GSH; format: biochemical; settings: compound 50 µM, 37 °C
T1 sequence (P08263 1-222): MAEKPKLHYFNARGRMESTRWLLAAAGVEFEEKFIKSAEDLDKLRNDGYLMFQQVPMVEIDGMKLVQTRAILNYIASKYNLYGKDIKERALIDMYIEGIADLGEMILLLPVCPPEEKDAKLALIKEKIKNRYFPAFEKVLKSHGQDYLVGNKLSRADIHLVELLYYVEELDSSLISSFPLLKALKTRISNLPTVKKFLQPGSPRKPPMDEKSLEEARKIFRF

hGSTM1-1 = target: T2, hGSTM1-1 (Homo sapiens, UniProt P09488); experiment: as above; format: biochemical; settings: compound 50 µM, 37 °C
T2 sequence (P09488 2-218 limits assumed): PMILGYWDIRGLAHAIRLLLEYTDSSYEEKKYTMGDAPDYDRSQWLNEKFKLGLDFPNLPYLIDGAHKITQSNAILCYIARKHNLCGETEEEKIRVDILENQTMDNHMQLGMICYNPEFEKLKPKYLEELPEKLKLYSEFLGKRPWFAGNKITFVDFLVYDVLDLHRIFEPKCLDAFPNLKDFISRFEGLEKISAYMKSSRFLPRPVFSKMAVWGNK

hGSTP1-1 = hGSTP1-1 (Homo sapiens, UniProt P09211); experiment: as above; format: biochemical; settings: compound 50 µM, 37 °C
HL-60 cells = experiment: MTT cell proliferation assay; format: cell-based; settings: Homo sapiens, HL-60, 72 h, read-out: IC50 anti-proliferative activity

Chain of hGSTP1-1 (P09211 2-210 limits assumed): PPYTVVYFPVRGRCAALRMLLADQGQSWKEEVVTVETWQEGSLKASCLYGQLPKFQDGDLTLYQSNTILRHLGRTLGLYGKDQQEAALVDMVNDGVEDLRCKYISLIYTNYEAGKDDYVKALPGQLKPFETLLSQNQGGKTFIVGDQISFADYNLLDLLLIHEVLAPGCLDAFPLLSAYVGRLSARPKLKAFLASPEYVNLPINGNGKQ

CCCOC(=O)N1CCN(/[N+]([O-])=N/Oc2ccc([N+](=O)[O-])cc2[N+](=O)[O-])CC1 [4c]
GSTA1-1 specific activity (hGSTA1-1): 59.0 µmol/mg/min | GSTM1-1 specific activity (hGSTM1-1): 126.3 µmol/mg/min | GSTP1-1 specific activity (hGSTP1-1): 1.2 µmol/mg/min

CCOC(=O)N1C(C)CN(/[N+]([O-])=N/Oc2ccc([N+](=O)[O-])cc2[N+](=O)[O-])CC1C (stereo not shown) [3c, O^2-(2,4-Dinitrophenyl) 1-[(4-Ethoxycarbonyl)-3,5-dimethylpiperazin-1-yl]diazen-1-ium-1,2-diolate]
GSTA1-1 specific activity (hGSTA1-1): 70.3 µmol/mg/min | GSTM1-1 specific activity (hGSTM1-1): 172 µmol/mg/min | GSTP1-1 specific activity (hGSTP1-1): 1.17 µmol/mg/min

CCOC(=O)N1CC(C)N(/[N+]([O-])=N/Oc2ccc([N+](=O)[O-])cc2[N+](=O)[O-])CC1C (stereo not shown) [3d, O^2-(2,4-Dinitrophenyl) 1-[(4-Ethoxycarbonyl)-2,5-dimethylpiperazin-1-yl]diazen-1-ium-1,2-diolate]
GSTA1-1 specific activity (hGSTA1-1): 17.6 µmol/mg/min | GSTM1-1 specific activity (hGSTM1-1): 49 µmol/mg/min | GSTP1-1 specific activity (hGSTP1-1): 0.14 µmol/mg/min

CCOC(=O)N1CCN(/[N+]([O-])=N/Oc2ccc([N+](=O)[O-])cc2[N+](=O)[O-])CC1 [JS-K, O^2-(2,4-dinitrophenyl) 1-[(4-ethoxycarbonyl)piperazin-1-yl]diazen-1-ium-1,2-diolate]
GSTA1-1 specific activity (hGSTA1-1): 66.3 µmol/mg/min | GSTM1-1 specific activity (hGSTM1-1): 126 µmol/mg/min | GSTP1-1 specific activity (hGSTP1-1): 1.36 µmol/mg/min | IC50 (HL-60 cells): 0.2 to 0.5 µM

CCOC(=O)N1CCN(/[N+]([O-])=N/Oc2ccc([N+](=O)[O-])cc2[N+](=O)[O-])C(C)C1 (stereo not shown) [3b, O^2-(2,4-Dinitrophenyl) 1-[(4-Ethoxycarbonyl)-2-methylpiperazin-1-yl]diazen-1-ium-1,2-diolate]
GSTA1-1 specific activity (hGSTA1-1): 47.0 µmol/mg/min | GSTM1-1 specific activity (hGSTM1-1): 110 µmol/mg/min | GSTP1-1 specific activity (hGSTP1-1): 0.88 µmol/mg/min

COC(=O)N1CCN(/[N+]([O-])=N/Oc2ccc([N+](=O)[O-])cc2[N+](=O)[O-])CC1 [4b]
GSTA1-1 specific activity (hGSTA1-1): 45.1 µmol/mg/min | GSTM1-1 specific activity (hGSTM1-1): 102 µmol/mg/min | GSTP1-1 specific activity (hGSTP1-1): 0.98 µmol/mg/min

CCOC(=O)N1CCCN(/[N+]([O-])=N/Oc2ccc([N+](=O)[O-])cc2[N+](=O)[O-])CC1 [4a]
GSTA1-1 specific activity (hGSTA1-1): 16.8 µmol/mg/min | GSTM1-1 specific activity (hGSTM1-1): 38 µmol/mg/min | GSTP1-1 specific activity (hGSTP1-1): 0.16 µmol/mg/min

CCOC(=O)N1CCN(/[N+]([O-])=N/Oc2ccc([N+](=O)[O-])cc2[N+](=O)[O-])CC1C (stereo not shown) [3a, O^2-(2,4-Dinitrophenyl) 1-[(4-Ethoxycarbonyl)-3-methylpiperazin-1-yl]diazen-1-ium-1,2-diolate]
GSTA1-1 specific activity (hGSTA1-1): 55.5 µmol/mg/min | GSTM1-1 specific activity (hGSTM1-1): 112 µmol/mg/min | GSTP1-1 specific activity (hGSTP1-1): 1.15 µmol/mg/min
